Assay [1] concerns nicotinic receptors mediating S-nicotine-evoked [^3H]DA release in rat striatal slices. Description: Inhibition of S-nicotine-evoked [^3H]dopamine release from superfused rat striatal slices. The assay is classed as cell-based. The note with it: 1 h; 100 nM analog superfused 60 min before NIC 10 μM; rat striatal slices; read-out: [^3H]DA release, % inhibition of S-nicotine-evoked release. The protocol: Rat striatal slices (500 μm thickness, 6-8 mg wet weight) were incubated for 30 minutes in Krebs buffer (118 mM NaCl, 4.7 mM KCl, 1.2 mM MgCl2, 1.0 mM NaH2PO4, 1.3 mM CaCl2, 11.1 mM glucose, 25 mM NaHCO3, 0.11 mM L-ascorbic acid, and 0.004 mM disodium EDTA; pH 7.4, and saturated with 95% O2/5% CO2) in a metabolic shaker at 34° C. Slices were rinsed with 15 mL of fresh buffer and incubated for an additional 30 minutes in fresh buffer containing 0.1 μM [^3H]dopamine (DA; 6 slices/3 mL). Subsequently, slices were rinsed with 15 mL of fresh buffer and transferred to a glass superfusion chamber. Slices were superfused (1.0 mL/min) for 60 minutes with Krebs buffer containing nomifensine (10 μM) and pargyline (10 μM) and maintained at 34° C., pH 7.4, with continual aeration (95% O2/5% CO2). Two five minute samples (5 mL each) were collected to determine basal outflow of [^3H]DA. The bis-quaternary ammonium analogs were added to the superfusion buffer after the collection of the second sample and remained in the buffer until 12 consecutive five minute samples were collected. Subsequently, S-nicotine (NIC; 10 μM) was added to the buffer and an additional 12 consecutive five minute samples were collected. At the end of the experiment, each slice was solubilized and the [^3H] content of the tissue determined.
Radioactivity in the superfusate and tissue samples was determined by liquid scintillation spectroscopy. Fractional release for tritium collected in each sample was divided by the total tritium present in the tissue at the time of sample collection and was expressed as a percentage of total tritium. Basal [^3H]outflow was calculated from the average of the tritium collected in the two five minute samples just before addition of the quaternary analog. The sum of the increase in collected tritium resulting from either exposure to the test compound or exposure to S-nicotine in the absence and presence of the test compound equaled total [^3H]overflow. [^3H]Overflow was calculated by subtracting the [^3H]outflow during an equivalent period of prestimulation from the values in samples collected during and after drug exposure. Inasmuch as the radiolabelled compounds were not separated and identified, the tritium collected in superfusate is referred to as either [3H]outflow or [^3H]overflow, rather than as [^3H]DA. [^3H]Overflow primarily represents [^3H]DA in the presence of nomifensine and pargyline in the superfusion buffer.
The bis-quaternary ammonium analogs were also evaluated for their ability to inhibit NIC evoked [^3H]DA release. In these experiments, the striatal slices were superfused for 60 minutes with 100 nM concentration of the quaternary analogs prior to NIC (10 μM) exposure. Antagonist activity was evaluated by comparing the NIC-evoked [^3 H]overflow in the absence and presence of the analogs. The relative order of potency of the quaternary analogs for inhibition of NIC-evoked [^3H]DA release from rat striatal slices is illustrated in Table 1.
^aData are % inhibition at 100 nM concentration of the bis-quaternary ammonium analogs for at least 1-3 independent experiments; with the exception of when a Ki value in μM is provided, in which case a full concentration effect was evaluated. Specific binding in the [^3H]NIC binding assay is calculated as the difference between the total binding of 3 nM [^3H]NIC and nonspecific binding in the presence of 10 μM cold cytisine. Specific binding for the [^3H]MLA binding assay is calculated as the difference between the total binding of […] [^3H]MLA to the receptors alone and its nonspecific binding in the presence of […] cold S-nicotine. Analog-induced inhibition of S-nicotine-evoked [^3H]DA release is calculated as a percent of that in the absence of the bis-quaternary ammonium analog.

Assay [2] deals with T1, Rat Striatal Nicotinic Receptors ([^3H]NIC binding sites; α4β2) (Rattus norvegicus, UniProt P09483+P12390).
T1 construct: Whole brain, excluding cortex and cerebellum, was homogenized in 20 vol of ice-cold buffer; from tissue; host or cells: rat brain membranes (whole brain excluding cortex and cerebellum)
Description: Inhibition of [^3H]NIC binding. Conditions: 1 h; 100 nM analog; 3 nM [^3H]NIC; nonspecific 10 μM cytisine; rat brain membranes. The protocol:
(§1) Homogenate was centrifuged (25,000 g, 15 min, 4° C). Pellets were resuspended in 20 vol buffer and incubated at 37° C., for 10 min, cooled to 4° C. and centrifuged (25,000 g, 15 min, 4° C.). Pellets were resuspended and centrifuged using the same conditions. […] Upon use, final pellets were resuspended in 20 vol assay buffer. Samples (250 μl) contained 100-140 μg of membrane protein, 3 nM [^3H]-S-nicotine or 3 nM [^3H]-methyllycaconitine (MLA), and bis-quaternary ammonium analog (100 nM) in assay buffer containing 50 mM Tris. Control was in the absence of analog. In [^3H]-S-nicotine and [^3H]-methyllycaconitine binding assays, nonspecific binding was determined in the presence of 10 μM cytisine and 10 μM S-nicotine, respectively. Incubations proceeded for 60 min at room temperature using 96-well plates and were terminated by harvesting on Unifilter-96 GF/B filter plates presoaked in 0.5% polyethylenimine, using a Packard FilterMate harvester. After washing 5 times with 350 μl ice-cold assay buffer, filter plates were dried (60 min, 4° C.), bottom-sealed, and filled with Packard's MicroScint 20 cocktail (40 μl/well). After 60 min, filter plates were top-sealed, and radioactivity determined using a Packard TopCount. Protein concentrations were determined using the Bradford dye-binding procedure bovine serum albumin as the standard.
Specific binding in the [^3H]NIC binding assay is calculated as the difference between the total binding of 3 nM [^3H]NIC and nonspecific binding in the presence of 10 μM cold cytisine. […] Analog-induced inhibition of S-nicotine-evoked [^3H]DA release is calculated as a percent of that in the absence of the bis-quaternary ammonium analog.

The target in assay [3] is T2, Rat Striatal Nicotinic Receptors ([^3H]MLA binding sites; α7) (Rattus norvegicus, UniProt Q05941).
T2 construct: Whole brain, excluding cortex and cerebellum, was homogenized in 20 vol of ice-cold buffer; from tissue; host or cells: rat brain membranes (whole brain excluding cortex and cerebellum)
In words: Inhibition of [^3H]MLA (methyllycaconitine) binding. Conditions: 100 nM analog; [^3H]MLA; nonspecific S-nicotine; rat brain membranes; read-out: [^3H]MLA binding, % inhibition. The protocol: as §1, with “standard. […]” for “standard.”

16 molecules from US8178678B2, “Bis-quaternary ammonium salts and methods for modulating neuronal nicotinic acetylcholine receptors” (University of Kentucky Research Foundation, priority 2006, dated 2012) can be followed below.

T1 sequence (P09483 31-630): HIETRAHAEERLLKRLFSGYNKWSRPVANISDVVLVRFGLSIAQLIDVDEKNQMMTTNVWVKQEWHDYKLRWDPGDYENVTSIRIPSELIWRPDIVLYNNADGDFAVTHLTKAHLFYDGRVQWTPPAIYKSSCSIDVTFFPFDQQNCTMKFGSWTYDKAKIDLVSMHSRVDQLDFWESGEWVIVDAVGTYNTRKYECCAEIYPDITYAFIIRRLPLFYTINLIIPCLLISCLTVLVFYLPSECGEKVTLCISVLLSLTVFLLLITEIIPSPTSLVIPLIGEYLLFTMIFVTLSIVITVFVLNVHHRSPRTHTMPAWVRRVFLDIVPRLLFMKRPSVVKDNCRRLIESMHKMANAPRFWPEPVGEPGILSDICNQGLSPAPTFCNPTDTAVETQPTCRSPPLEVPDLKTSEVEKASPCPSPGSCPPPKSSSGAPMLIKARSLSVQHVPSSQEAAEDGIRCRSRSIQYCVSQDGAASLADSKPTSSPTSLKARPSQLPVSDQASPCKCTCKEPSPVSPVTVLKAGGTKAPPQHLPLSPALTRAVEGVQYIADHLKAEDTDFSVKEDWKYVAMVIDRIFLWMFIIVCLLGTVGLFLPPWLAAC
T1 sequence (P12390 25-500): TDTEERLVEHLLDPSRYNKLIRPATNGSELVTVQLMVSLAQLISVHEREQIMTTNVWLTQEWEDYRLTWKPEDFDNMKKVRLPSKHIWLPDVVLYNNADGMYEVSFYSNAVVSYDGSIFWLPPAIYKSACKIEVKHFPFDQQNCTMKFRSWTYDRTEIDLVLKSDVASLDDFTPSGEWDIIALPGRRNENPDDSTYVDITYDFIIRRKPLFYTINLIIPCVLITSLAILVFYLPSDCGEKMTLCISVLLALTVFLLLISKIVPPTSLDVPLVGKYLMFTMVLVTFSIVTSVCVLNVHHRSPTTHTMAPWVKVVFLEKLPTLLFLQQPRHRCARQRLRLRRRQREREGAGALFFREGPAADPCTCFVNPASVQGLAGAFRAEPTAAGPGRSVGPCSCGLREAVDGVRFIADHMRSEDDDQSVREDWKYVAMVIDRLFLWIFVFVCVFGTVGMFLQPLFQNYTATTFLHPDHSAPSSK
T2 sequence (Q05941 23-502): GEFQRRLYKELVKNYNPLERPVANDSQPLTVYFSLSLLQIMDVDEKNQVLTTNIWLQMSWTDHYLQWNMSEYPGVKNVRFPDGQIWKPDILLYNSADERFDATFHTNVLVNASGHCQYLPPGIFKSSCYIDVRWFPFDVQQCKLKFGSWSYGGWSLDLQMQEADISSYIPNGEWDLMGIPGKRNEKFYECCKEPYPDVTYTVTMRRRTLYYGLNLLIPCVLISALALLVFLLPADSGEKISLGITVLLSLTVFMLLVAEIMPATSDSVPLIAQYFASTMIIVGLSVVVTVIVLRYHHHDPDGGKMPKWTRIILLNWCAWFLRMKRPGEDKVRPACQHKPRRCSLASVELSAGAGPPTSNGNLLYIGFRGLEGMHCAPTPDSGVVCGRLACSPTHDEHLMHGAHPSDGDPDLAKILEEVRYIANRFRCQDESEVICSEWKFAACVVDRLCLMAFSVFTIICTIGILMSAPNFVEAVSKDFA

As to `Cc1cc[n+](CCCC#Cc2ccccc2C#CCCC[n+]2ccc(C)cc2C)c(C)c1` [Example 26, 1,2-bis-[5-(2,4-dimethyl-pyridinium)-pent-1-ynyl]-benzene dibromide], the inhibition at 0.1 µM in assay [1] was 18%; in assay [2], 0%; in assay [3], 0%.
On to `Cc1cc[n+](CCCCCc2ccccc2CCCCC[n+]2ccc(C)c(C)c2)cc1C` [Example 38, 1,2-bis-[5-(3,4-dimethyl-pyridinium)-pentyl]-benzene dibromide], for which the values for the inhibition at 0.1 µM in assay [1], in assay [2] and in assay [3] were 10%, 3% and 4.6%, respectively.
The matching figures for `Cc1cccc[n+]1CCCCCc1ccccc1CCCCC[n+]1ccccc1C` [Example 34, 1,2-bis-[5-(2-methyl-pyridinium)-pentyl]-benzene dibromide]: 8%, 0% and 7.6%.
The corresponding values for `c1cc(CCCCC[n+]2cccc3ccccc32)cc(CCCCC[n+]2cccc3ccccc32)c1` [Example 68, 1,3-bis-(5-quinolinium-pentyl)-benzene dibromide] are 16%, 8.3% and 14%.
The corresponding values for `Cc1ccc[n+](CCCC#Cc2ccccc2C#CCCC[n+]2cccc(C)c2)c1` [Example 24, 1,2-bis-[5-(3-methyl-pyridinium)-pent-1-ynyl]-benzene dibromide] are 46%, 3.9% and 0%.
Turning to `Cc1ccc[n+](CCCc2ccc(-c3ccc(CCC[n+]4cccc(C)c4)cc3)cc2)c1` [Example 78, N,N′-[(1,1′-biphenyl)-4,4′-di-(3-propanyl)]-bis-(3-methylpyridinium)dibromide], the inhibition at 0.1 µM in assay [1] was found to be 44%; in assay [2] it was 0%; in assay [3], 5.5%.
The corresponding values for `C(#Cc1ccccc1C#CCCC[n+]1cccc2ccccc21)CCC[n+]1cccc2ccccc21` [Example 29, 1,2-bis-(5-quinolinium-pent-1-ynyl)-benzene dibromide] are 20%, 0% and 2.3%.
The matching figures for `Cc1cc[n+](CCOCCOCCOCC[n+]2ccc(C)cc2)cc1` [Example 83, N,N′-{2,2′-[oxybis-(2,1-ethandiyloxy)]bis-ethyl}-bis(4-methylpyridinium)dichloride]: 53%, 15% and 7%.
The matching figures for `C(#Cc1ccccc1C#CCCC[n+]1ccc2ccccc2c1)CCC[n+]1ccc2ccccc2c1` [Example 30, 1,2-bis-(5-isoquinolinium-pent-1-ynyl)-benzene dibromide]: 24%, 1.6% and 1.1%.
`Cc1cc[n+](CCCCCc2ccccc2CCCCC[n+]2ccc(C)cc2C)c(C)c1` [Example 37, 1,2-bis-[5-(2,4-dimethyl-pyridinium)-pentyl]-benzene dibromide]: the inhibition at 0.1 µM in assay [1] came to 20%; in assay [2], 0%; in assay [3] it was 4.8%.
The matching figures for `CN1CCC[C@@H]1c1ccc[n+](CCCC#Cc2ccccc2C#CCCC[n+]2cccc([C@@H]3CCCN3C)c2)c1` [Example 31, 1,2-bis-[5-(2′-S-nicotinium-pent-1-ynyl)]benzene dibromide]: 35%, 72% and 9.2%.
As for `Cc1ccc[n+](CCOCCOCCOCC[n+]2cccc(C)c2)c1` [Example 82, N,N′-{2,2′-[oxybis-(2,1-ethandiyloxy)]bis-ethyl}-bis(3-methylpyridinium)dichloride], the inhibition at 0.1 µM in assay [1] was determined as 58%; in assay [2], 17%; in assay [3] it was 13%.
Regarding `OCc1ccc[n+](CCOCCOCCOCC[n+]2cccc(CO)c2)c1` [Example 87, N,N′-{2,2′-[oxybis-(2,1-ethandiyloxy)]bis-ethyl}-bis-(3-hydroxymethylpyridinium)dichloride], the inhibition at 0.1 µM in assay [2] was 8.2%; in assay [3] it was 11%.
The matching figures for `c1cc2c([n+](CCCc3ccc(-c4ccc(CCC[n+]5cccc6c5CCCC6)cc4)cc3)c1)CCCC2` [Example 75, N,N′-[(1,1′-biphenyl)-4,4′-di-(3-propanyl)]-bis-[5,6,7,8-tetrahydroquinolinium]dibromide]: 0.4% and 10%.
Take `c1cc(-c2ccc(CCC[n+]3ccc4c(c3)CCCC4)cc2)ccc1CCC[n+]1ccc2c(c1)CCCC2` [Example 76, N,N′-[(1,1′-biphenyl)-4,4′-di-(3-propanyl)]-bis-[5,6,7,8-tetrahydroisoquinolinium]dibromide]: the results for the inhibition at 0.1 µM in assay [2] and in assay [3] were 0% and 5.1%, respectively.
With `Cc1cccc[n+]1CCOCCOCCOCC[n+]1ccccc1C` [Example 81, N,N′-{2,2′-[oxybis-(2,1-ethandiyloxy)]bis-ethyl}-bis(2-methylpyridinium)dichloride], the inhibition at 0.1 µM in assay [2] came out at 8.5%; in assay [3], 17%.
